Assay results: paper PMC8769072, “Proteome‐scale mapping of binding sites in the unstructured regions of the human proteome” (Molecular Systems Biology, 2022)
One block for each compound: values may come before it. Where a SMILES comes first, the peptide text is derived from it. [ ]: non-standard residue; d: D form. The star is where a group is joined. FITC = O=C1OC2(c3ccc(O)cc3Oc3cc(O)ccc32)c2ccc(NC(=S)*)cc21; pS = N[C@@H](COP(=O)(O)O)C(=O)O

Experiments:
[1] = biological target: T1, KPNB1 HEAT (Homo sapiens, UniProt Q14974); experiment: FP saturation (direct binding of FITC probe), KPNB1 HEAT; details: direct binding of FITC-labeled probe, 10 nM in master mix, 50 mM KPO4 pH 7.5
T1 construct: Q14974; KPNB1; HEAT; 485; pETM41; Genescript; 6-His-MBP (from vector pETM41) (cleaved yes); made in house; host or cells: bacteria (E. coli BL21(DE3) gold is named only for the phage-selection preparations)
T1 sequence (Q14974 1-485): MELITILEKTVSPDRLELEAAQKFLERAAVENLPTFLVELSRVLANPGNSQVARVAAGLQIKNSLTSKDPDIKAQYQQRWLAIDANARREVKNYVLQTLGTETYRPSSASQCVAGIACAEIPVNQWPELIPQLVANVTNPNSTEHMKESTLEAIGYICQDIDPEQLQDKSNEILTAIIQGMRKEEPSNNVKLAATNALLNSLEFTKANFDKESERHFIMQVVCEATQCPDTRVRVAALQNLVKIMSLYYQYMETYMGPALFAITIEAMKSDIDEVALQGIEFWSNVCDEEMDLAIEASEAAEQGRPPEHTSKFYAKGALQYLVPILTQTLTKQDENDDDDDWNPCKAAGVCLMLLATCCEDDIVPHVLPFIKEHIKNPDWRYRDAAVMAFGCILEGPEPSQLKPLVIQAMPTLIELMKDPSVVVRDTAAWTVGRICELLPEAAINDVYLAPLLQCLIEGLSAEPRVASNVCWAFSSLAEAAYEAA

[2] = biological target: T2, TLN1 PTB (Homo sapiens, UniProt Q9Y490); experiment: FP saturation (direct binding of FITC probe), TLN1 PTB; details: Fig 3C; direct binding of FITC-labeled probe
T2 construct: Q9Y490; TLN1; PTB; 309; pHH0103; Sidhu Lab (PMID: 33438817); made in house; host or cells: bacteria (E. coli BL21(DE3) gold is named only for the phage-selection preparations)
T2 sequence (Q9Y490 309-401): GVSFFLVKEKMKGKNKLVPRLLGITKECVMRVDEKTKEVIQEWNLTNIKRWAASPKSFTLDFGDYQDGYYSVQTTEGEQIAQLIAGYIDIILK

[3] = biological target: T3, SFN 14-3-3 (Homo sapiens, UniProt P31947); experiment: FP saturation (direct binding of FITC probe), SFN 14-3-3; design: P31947; SFN; 14-3-3; 236; pHH0103; Sidhu Lab (PMID: 33438817); made in house; host or cells: bacteria (E. coli BL21(DE3) gold is named only for the phage-selection preparations); details: direct binding of FITC-labeled phospho-RAF1 probe
T3 sequence (P31947 1-236): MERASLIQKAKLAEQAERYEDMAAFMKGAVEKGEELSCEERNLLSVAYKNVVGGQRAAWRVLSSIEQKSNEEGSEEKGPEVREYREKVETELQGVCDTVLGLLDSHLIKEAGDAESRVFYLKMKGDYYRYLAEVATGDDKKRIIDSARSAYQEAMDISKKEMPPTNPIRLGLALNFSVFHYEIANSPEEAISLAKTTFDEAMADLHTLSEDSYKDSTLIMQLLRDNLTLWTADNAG

[4] = biological target: T3, SFN 14-3-3; experiment: FP competition, SFN 14-3-3
[5] = biological target: T4, KPNA4 ARM (Homo sapiens, UniProt O00629); experiment: FP competition, KPNA4 ARM major pocket (FITC-Myc probe); assay type: binding
T4 construct: O00629; KPNA4; Arm; 68; 487; pETM33/pETM41; Genescript; made in house; host or cells: bacteria (E. coli BL21(DE3) gold is named only for the phage-selection preparations)
T4 sequence (O00629 68-487): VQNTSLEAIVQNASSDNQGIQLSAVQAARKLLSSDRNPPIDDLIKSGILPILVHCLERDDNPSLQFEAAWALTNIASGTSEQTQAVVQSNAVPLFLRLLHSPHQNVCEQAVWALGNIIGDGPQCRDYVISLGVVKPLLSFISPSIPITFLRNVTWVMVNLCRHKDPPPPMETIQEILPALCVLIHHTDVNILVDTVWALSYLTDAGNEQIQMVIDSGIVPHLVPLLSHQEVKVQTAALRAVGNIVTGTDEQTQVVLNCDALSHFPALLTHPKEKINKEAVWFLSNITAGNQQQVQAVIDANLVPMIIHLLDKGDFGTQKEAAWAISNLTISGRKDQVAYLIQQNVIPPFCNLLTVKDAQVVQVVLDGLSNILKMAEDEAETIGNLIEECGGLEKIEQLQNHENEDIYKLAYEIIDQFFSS
From the text: Like other importins, KPNA4 has two distinct NLS‐binding pockets on the surface of an armadillo (ARM) repeat fold (major pocket, ARM 2–4; minor pocket, ARM 6–8; Fig 5B) (Smith et al, [2018]). Bipartite NLSs are usually 17–19 amino acids long and engage both pockets. Monopartite NLSs are short basic stretches, divided into five classes (Kosugi et al, [2009]): class I KR[KR]R or K[KR]RK, class II [PR]xxKR[^DE][KR] (where ^ indicates “not”), class III KRx[WFY]xxAF, class IV [RP]xxKR[KR][^DE], and class V LGKR[KR][WFY]. The class I and class II motifs preferentially interact with the major pocket (Kosugi et al, [2009]). In contrast, class III and class IV NLSs preferentially bind to the minor pocket. Using KPNA4 as a bait against the HD2 P8 library we identified 33 peptides found in 32 proteins. Of the 26 proteins for which information was available, 22 proteins were annotated as having nuclear or nucleolar localization in the UniProt database. To gain additional information we combined the data generated for KPNA4 by screening against the complete P8 HD2 library, with the results generated using two relevant sublibraries (the cytoplasmic and nuclear, and nuclear sublibraries) resulting in a set of 92 peptides containing NLS‐like sequences found in 76 proteins. Using these peptides we could generate consensus motifs that matched four of the previously reported NLS classes (Fig 5A; class I‐IV). […] Three peptides bound only to the major pocket. Eight peptides with class III motif and one KRxH‐containing peptide only bound to the minor pocket. Five peptides outcompeted both probe peptides, which may be explained by the amino acid sequence matching both class II and class III motifs (e.g., 1135‐ PSPKRKL ‐1139 in ZNF532; Fig 5), and possibly by cross specificity of the two binding pockets.

[6] = test system: HEK293 cells; experiment: GFP-based NLS sensor (tri-GFP) cellular localization; assay type: cell-based, human; details: HEK293 cells transiently transfected, fixed 36 h after transfection, epifluorescence microscopy, DAPI; n = 3 independent experiments
From the text: For the cell‐based NLS experiment, a pEGFP‐C1 vector was modified to contain two additional eGFP genes spaced by a linker region on the 3′ end of the vector's multiple cloning site (Appendix Fig S8). The modified vector is here called a “tri‐GFP vector”. DNA strands for tandem peptides to be tested for NLS function were constructed by PCR using overlapping primers that coded for the peptide sequences and also contained overlapping regions for the MCS in the tri‐GFP vector. The PCR products were then cloned into the tri‐GFP vector using Gibson Assembly® (New England Biolabs) following the manufacturer's recommendations. Obtained clones were verified by Sanger sequencing.
HEK293 cells were obtained from Sigma (Cat. 85120602) and cultured using DMEM with GlutaMAX™ Supplement (Gibco™) supplemented with 10% FBS (Gibco™) and Non‐Essential Amino Acids Solution (NEAA, Gibco™). Cultures were maintained at 37°C with 5% CO2 in humidified chambers and were routinely checked for mycoplasma contamination. For NLS experiments, cells were transfected using FuGENE® HD (Promega) according to manufacturer's instructions and using highly purified DNA samples. • Cells were then grown in eight‐well chamber slides. […]

Compound: CC(C)[C@H](NC(=O)[C@H](Cc1ccccc1)NC(=O)[C@@H](NC(=O)[C@H](C)NC(=O)[C@@H](NC(=S)Nc1ccc2c(c1)C(=O)OC21c2ccc(O)cc2Oc2cc(O)ccc21)C(C)C)[C@@H](C)O)C(=O)N[C@@H](Cc1ccccc1)C(=O)NCC(=O)N[C@@H](CCC(N)=O)C(=O)N[C@@H](CO)C(=O)N[C@@H](CO)C(N)=O [NUP153_FITC] ({FITC}-VATFVFGQSS-NH2)
Kd [1]: 106 µM

Compound: CC(C)[C@H](NC(=O)[C@H](CC(N)=O)NC(=O)[C@@H]1CCCN1C(=O)[C@@H](NC(=O)[C@H](COP(=O)(O)O)NC(=O)[C@@H](NC(=O)[C@H](CO)NC(=O)[C@H](CCCNC(=N)N)NC(=O)[C@H](CCC(N)=O)NC(=S)Nc1ccc2c(c1)C(=O)OC21c2ccc(O)cc2Oc2cc(O)ccc21)[C@@H](C)O)[C@@H](C)O)C(=O)N[C@@H](Cc1c[nH]cn1)C(N)=O [RAF_FITC] ({FITC}-QRST[pS]TPNVH-NH2)
Kd [3]: 524 µM

Compound: Ac-YKCKRQRQDQTLELVGL-NH2 [NKX2-5 Wt]
Ki [5]: 6.8 µM
NLS function: localization of the GFP-based NLS sensor fused to the peptide [6]: nuclear localization

Compound: Ac-YKCRRQRQDQTLELVGL-NH2 [NKX2-5 K194R]
IC50 ([5]; FP competition with FITC-Myc320-328 probe for the major pocket, 50 mM KPO4 pH 7.5, n = 3 technical replicates): 98 µM
loss of affinity of KPNA4 binding, mutant versus wild-type ([5]; FP competition with FITC-Myc probe, K194R versus wild-type): 10 fold
NLS function: localization of the GFP-based NLS sensor fused to the peptide [6]: cytoplasmic localization

Second part, the compound after the results:

Kd [2]: 0.15 ± 0.04 µM
Compound: CC(C)C[C@H](NC(=O)[C@@H]1CCCN1C(=O)[C@H](CO)NC(=O)[C@H](Cc1ccc(O)cc1)NC(=O)[C@@H](NC(=O)[C@H](Cc1c[nH]c2ccccc12)NC(=O)[C@H](CO)NC(=O)[C@H](CCCNC(=N)N)NC(=O)[C@H](CCC(=O)O)NC(=O)[C@H](CC(=O)O)NC(=O)[C@@H](NC(=O)[C@@H]1CCCN1C(=O)[C@H](Cc1ccccc1)NC(=S)Nc1ccc2c(c1)C(=O)OC21c2ccc(O)cc2Oc2cc(O)ccc21)[C@@H](C)O)C(C)C)C(=O)N[C@@H](Cc1c[nH]cn1)C(=O)N[C@@H](Cc1ccc(O)cc1)C(=O)N[C@@H](CO)C(N)=O [PIP5K1C_FITC] ({FITC}-FPTDERSWVYSPLHYS-NH2)

IC50 [4]: 1970 µM
Compound: Ac-NEPTTPSWLADIPPWVP-NH2 [MAP1A]
